Values belong to the molecule of their own block, whether it stands above or below them.
How the values were obtained:
[1] = biological target: T1, human cannabinoid receptor type 2 (Homo sapiens, UniProt P34972); test: Human CB2 Radioligand Binding Assay; conditions: competition with [3H] CP-55,940; membranes from stably transfected CHO CB2 cells; read-out: CB2 Ligand Binding Asssay EC50
T1 construct: expressed in transfected cells; membrane preparation
Procedure: 1. Human CB2 Radioligand Binding Assay
This receptor binding filtration assay measures the receptor-ligand interactions of compounds by measuring ability to compete with a radiolabeled control ligand. Reactions were performed in 96 deep-well plate (Costar 3961) with a final volume of 600 ul. Compounds were added to each well either in single point (10 uM final) or dose-response. Compounds were delivered in DMSO or further diluted in incubation buffer to a final assay DMSO concentration of 1%. Incubation buffer (50 mM Tris-HCl pH 7.4, 2.5 mM EGTA, 5 mM MgCl2, 5.0 mg/ml fatty acid free BSA) was added to each well. Following buffer addition, [^3H] CP-55,940 was added. Tritiated CP-55,940 (Perkin Elmer) was used at the Kd determined from prior saturation binding experiments conducted on each lot of membranes. Membrane preparations from stably transfected CHO CB2 cells were added and the reaction was incubated for 90 minutes at 30° C. Unifilter GF/C filtration plates (Perkin Elmer) were pre-wet with 0.05% polyethylenimine. Samples were transferred to Unifilter plates and separation of unbound radioligand was achieved using a vacuum manifold (Millipore). Following thorough washing with 5 ml/well ice-cold wash buffer (50 mM Tris-HCl pH 7.4, 2.5 mM EGTA, 5 mM MgCl2, 0.5 mg/ml fatty acid free BSA), filterplates were dried completely. Betaplate Scint Scintillation cocktail (25 ul, Perkin Elmer) was applied and plates were read using Microbeta Trilux (Wallac). Data analysis was performed in Spotfire. Activity of the positive control (100 nM CP-55,940) was set as 100% efficacy.
Stable recombinant Human CB2-CHO cell membranes were prepared as follows: Chinese Hamster Ovarian (CHO) cells stably expressing human cannabinoid receptor type 2 were grown to 90% confluence in 15×100 mm culture dishes under puromycin selection (5 ug/ml) Cells were harvested from culture flasks using a cell scraper, were washed once with cold phosphate-buffered saline (calcium and magnesium free) and pelleted by centrifugation at 400 g for 5 min at 4° C. Cell pellet was washed once with cold phosphate-buffered saline and centrifuged again at 400×g for 5 min at 4° C. The pellet was suspended in ice-cold lysis buffer (10 mM Tris-HCl, 0.1 mM EDTA, containing […], pH 7.5) and homogenized in a chilled 7 ml glass dounce homogenizer using 50 strokes. The homogenate was centrifuged at 400 g for 15 min at 4° C. The cloudy supernatant was collected and centrifuged at 41000 g for 30 min at 4° C. The resulting pellet was washed with ice-cold sucrose-free lysis buffer and centrifuged again at 41000 g for 30 min at 4° C. The membrane pellet was suspended in sucrose-free storage buffer (10 mm Tris-HCl, 0.1 mM EDTA, pH 7.5) to a concentration of 2-3 mg protein/ml. Aliquots were flash frozen in liquid nitrogen and stored at −80° C. Concentration was determined using Dc protein assay kit (Bio-Rad).

[2] = biological target: T2, human cannabinoid receptor type 1 (Homo sapiens, UniProt P21554); test: Human CB1 Radioligand Binding Assay (basis of selectivity, CB2 vs. CB1); conditions: CB1: HEK 293 EBNA cells expressing human CB1; CB2: CHO CB2 membranes
T2 construct: purchased Perkin Elmer RBHCB1M; host or cells: HEK 293 EBNA cells
T2 sequence (P21554 whole entry): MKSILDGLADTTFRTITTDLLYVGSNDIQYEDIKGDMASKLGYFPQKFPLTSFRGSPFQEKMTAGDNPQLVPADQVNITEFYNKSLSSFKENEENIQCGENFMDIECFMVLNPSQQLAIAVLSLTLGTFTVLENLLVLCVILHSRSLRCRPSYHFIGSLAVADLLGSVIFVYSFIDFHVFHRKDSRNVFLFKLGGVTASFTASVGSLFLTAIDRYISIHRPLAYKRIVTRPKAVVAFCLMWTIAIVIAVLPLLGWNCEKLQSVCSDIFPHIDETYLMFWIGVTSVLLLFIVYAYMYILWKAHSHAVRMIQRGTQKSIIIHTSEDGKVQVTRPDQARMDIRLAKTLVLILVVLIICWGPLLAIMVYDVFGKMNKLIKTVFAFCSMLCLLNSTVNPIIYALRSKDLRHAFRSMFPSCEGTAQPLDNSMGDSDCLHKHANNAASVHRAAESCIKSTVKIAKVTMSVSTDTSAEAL
Procedure: 2. Human CB1 Radioligand Binding Assay
The incubation buffer was composed of 50 mM Tris-HCl pH 7.4, 2.5 mM EDTA, 5 mM MgCl2, 5.0 mg/ml fatty acid free BSA and the wash buffer was composed of 50 mM Tris-HCl pH 7.4, 2.5 mM EDTA, 5 mM MgCl2, 0.5 mg/ml fatty acid free BSA.

T1 sequence (P34972 whole entry): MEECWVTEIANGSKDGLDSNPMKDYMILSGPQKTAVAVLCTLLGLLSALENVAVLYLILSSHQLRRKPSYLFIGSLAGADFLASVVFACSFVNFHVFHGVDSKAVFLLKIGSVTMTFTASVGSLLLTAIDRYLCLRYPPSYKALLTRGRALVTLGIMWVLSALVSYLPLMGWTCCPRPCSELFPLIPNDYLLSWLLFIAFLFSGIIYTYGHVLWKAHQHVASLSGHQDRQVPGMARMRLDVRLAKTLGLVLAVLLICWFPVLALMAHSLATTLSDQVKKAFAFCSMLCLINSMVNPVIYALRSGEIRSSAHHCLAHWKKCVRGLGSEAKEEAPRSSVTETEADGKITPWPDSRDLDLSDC

EC50 [1]: < 1 µM
Selectivity, CB2 vs. CB1 [2]: − (− indicates ≦ 10−fold)
SMILES: c1ccc2c(N3CCOCC3)nc(C3CCCCC3)nc2c1 [Example 35, 4-(2-Cyclohexylquinazolin-4-yl)morpholine]

EC50 [1]: < 1 µM
Selectivity, CB2 vs. CB1 [2]: + (+ indicates > 10−fold)
SMILES: c1ccc2c(N3CCCC3)nc(C3CCCCC3)nc2c1 [Example 36, 2-Cyclohexyl-4-(pyrrolidin-1-yl)quinazolines]

EC50 [1]: > 1 µM
Selectivity, CB2 vs. CB1 [2]: − (− indicates ≦ 10−fold)
SMILES: CCCc1nc(N2CCCC2)c2ccccc2n1 [Example 40, 2-Propyl-4-(pyrrolidin-1-yl)quinazoline]

EC50 [1]: > 1 µM
Selectivity, CB2 vs. CB1 [2]: − (− indicates ≦ 10−fold)
SMILES: CCCc1nc(N2CCN(C)CC2)c2ccccc2n1 [Example 41, 4-(4-Methylpiperazin-1-yl)-2-propylquinazoline]

EC50 [1]: < 1 µM
Selectivity, CB2 vs. CB1 [2]: + (+ indicates > 10−fold)
SMILES: CN1CCN(c2nc(-c3ccc(C(F)(F)F)cc3)nc3ccccc23)CC1 [Example 42, 4-(4-Methylpiperazin-1-yl)-2-(4-(trifluoromethyl)phenyl)quinazoline]

EC50 [1]: < 1 µM
Selectivity, CB2 vs. CB1 [2]: + (+ indicates > 10−fold)
SMILES: FC(F)(F)c1ccc(-c2nc(N3CCOCC3)c3ccccc3n2)cc1 [Example 43, 4-(2-(4-(Trifluoromethyl)phenyl)quinazolin-4-yl)morpholine]

EC50 [1]: < 1 µM
Selectivity, CB2 vs. CB1 [2]: − (− indicates ≦ 10−fold)
SMILES: FC(F)(F)c1ccc(-c2nc(N3CCCCC3)c3ccccc3n2)cc1 [Example 44, 4-(Piperidin-1-yl)-2-(4-(trifluoromethyl)phenyl)quinazoline]

EC50 [1]: < 1 µM
Selectivity, CB2 vs. CB1 [2]: + (+ indicates > 10−fold)
SMILES: FC(F)(F)c1ccc(-c2nc(N3CCCC3)c3ccccc3n2)cc1 [Example 45, 4-(Pyrrolidin-1-yl)-2-(4-(trifluoromethyl)phenyl)quinazoline]

EC50 [1]: < 1 µM
Selectivity, CB2 vs. CB1 [2]: + (+ indicates > 10−fold)
SMILES: Clc1ccccc1-c1nc(N2CCCCC2)c2ccccc2n1 [Example 54, 2-(2-Chlorophenyl)-4-(piperidin-1-yl)quinazoline]

EC50 [1]: < 1 µM
Selectivity, CB2 vs. CB1 [2]: + (+ indicates > 10−fold)
SMILES: CN1CCN(c2nc(-c3ccccc3Cl)nc3ccccc23)CC1 [Example 57, 2-(2-Chlorophenyl)-4-(4-methylpiperazin-1-yl)quinazoline]

EC50 [1]: < 1 µM
Selectivity, CB2 vs. CB1 [2]: − (− indicates ≦ 10−fold)
SMILES: CC1CCN(c2nc(-c3ccccc3Cl)nc3ccccc23)CC1 [Example 58, 2-(2-Chlorophenyl)-4-(4-methylpiperidin-1-yl)quinazoline]

EC50 [1]: < 1 µM
Selectivity, CB2 vs. CB1 [2]: − (− indicates ≦ 10−fold)
SMILES: CC1CCCCN1c1nc(-c2ccccc2Cl)nc2ccccc12 (stereo not shown) [Example 59, 2-(2-Chlorophenyl)-4-(2-methylpiperidin-1-yl)quinazoline]

EC50 [1]: < 1 µM
Selectivity, CB2 vs. CB1 [2]: − (− indicates ≦ 10−fold)
SMILES: FC(F)(F)C1CCN(c2nc(-c3ccccc3Cl)nc3ccccc23)CC1 [Example 60, 2-(2-Chlorophenyl)-4-(4-(trifluoromethyl)piperidin-1-yl)quinazoline]

EC50 [1]: < 1 µM
Selectivity, CB2 vs. CB1 [2]: + (+ indicates > 10−fold)
SMILES: CCOC(=O)N1CCN(c2nc(-c3ccccc3Cl)nc3ccccc23)CC1 [Example 62, Ethyl 4-(2-(2-Chlorophenyl)quinazolin-4-yl)piperazine-1-carboxylate]

EC50 [1]: < 1 µM
Selectivity, CB2 vs. CB1 [2]: − (− indicates ≦ 10−fold)
SMILES: O=C1CCN(c2nc(-c3ccccc3Cl)nc3ccccc23)CC1 [Example 65, 1-(2-(2-Chlorophenyl)quinazolin-4-yl)piperidin-4-one]

EC50 [1]: < 1 µM
Selectivity, CB2 vs. CB1 [2]: − (− indicates ≦ 10−fold)
SMILES: OC1(c2ccc(Cl)cc2)CCN(c2nc(-c3ccccc3Cl)nc3ccccc23)CC1 [Example 66, 4-(4-Chlorophenyl)-1-[2-(2-chlorophenyl)quinazolin-4-yl]piperidin-4-ol]

EC50 [1]: < 1 µM
Selectivity, CB2 vs. CB1 [2]: − (− indicates ≦ 10−fold)
SMILES: Cc1ccc(Cl)cc1N1CCN(c2nc(-c3ccccc3Cl)nc3ccccc23)CC1 [Example 67, 4-[4-(5-Chloro-2-methylphenyl)piperazin-1-yl]-2-(2-chlorophenyl) quinazoline]

EC50 [1]: < 1 µM
Selectivity, CB2 vs. CB1 [2]: − (− indicates ≦ 10−fold)
SMILES: Clc1ccccc1-c1nc(N2CCSCC2)c2ccccc2n1 [Example 68, 2-(2-Chlorophenyl)-4-thiomorpholin-4-ylquinazoline]

More lines, now with the values behind:

SMILES: Clc1ccccc1Nc1nc(C2CCCCC2)nc2ccccc12 [Example 37, N-(2-Chlorophenyl)-2-cyclohexylquinazolin-4-amine]
EC50 [1]: > 1 µM
Selectivity, CB2 vs. CB1 [2]: − (− indicates ≦ 10−fold)

SMILES: c1ccc(CNc2nc(C3CCCCC3)nc3ccccc23)cc1 [Example 38, N-Benzyl-2-cyclohexylquinazolin-4-amine]
EC50 [1]: > 1 µM
Selectivity, CB2 vs. CB1 [2]: − (− indicates ≦ 10−fold)

SMILES: CC(C)(C)c1ccc(Nc2nc(-c3ccc(C(F)(F)F)cc3)nc3ccccc23)cc1 [Example 46, (4-tert-Butylphenyl)-[2-(4-trifluoromethylphenyl)quinazolin-4-yl]amine]
EC50 [1]: < 1 µM
Selectivity, CB2 vs. CB1 [2]: + (+ indicates > 10−fold)

SMILES: c1ccc(-c2nc(N3CCCC3)c3ccccc3n2)cc1 [Example 48, 2-Phenyl-4-(pyrrolidin-1-yl)quinazoline]
EC50 [1]: > 1 µM
Selectivity, CB2 vs. CB1 [2]: − (− indicates ≦ 10−fold)

SMILES: Clc1ccccc1Nc1nc(-c2ccccc2)nc2ccccc12 [Example 49, N-(2-Chlorophenyl)-2-phenylquinazolin-4-amine]
EC50 [1]: > 1 µM
Selectivity, CB2 vs. CB1 [2]: − (− indicates ≦ 10−fold)

SMILES: c1ccc(-c2nc(NCC3CC3)c3ccccc3n2)cc1 [Example 50, N-(Cyclopropylmethyl)-2-phenylquinazolin-4-amine]
EC50 [1]: > 1 µM
Selectivity, CB2 vs. CB1 [2]: − (− indicates ≦ 10−fold)

SMILES: CC(C)CNc1nc(-c2ccccc2)nc2ccccc12 [Example 51, N-iso-Butyl-2-phenylquinazolin-4-amine]
EC50 [1]: > 1 µM
Selectivity, CB2 vs. CB1 [2]: − (− indicates ≦ 10−fold)

SMILES: c1ccc(-c2nc(N3CCCCC3)c3ccccc3n2)cc1 [Example 52, 2-Phenyl-4-(piperidin-1-yl)quinazoline]
EC50 [1]: > 1 µM
Selectivity, CB2 vs. CB1 [2]: − (− indicates ≦ 10−fold)

SMILES: Clc1ccccc1-c1nc(N2CCCC2)c2ccccc2n1 [Example 53, 2-(2-Chlorophenyl)-4-(pyrrolidin-1-yl)quinazoline]
EC50 [1]: > 1 µM
Selectivity, CB2 vs. CB1 [2]: + (+ indicates > 10−fold)

SMILES: CN(Cc1ccccc1)c1nc(-c2ccccc2Cl)nc2ccccc12 [Example 55, N-Benzyl-2-(2-chlorophenyl)-N-methylquinazolin-4-amine]
EC50 [1]: < 1 µM
Selectivity, CB2 vs. CB1 [2]: − (− indicates ≦ 10−fold)

SMILES: Clc1ccccc1-c1nc(NCC2CC2)c2ccccc2n1 [Example 56, 2-(2-Chlorophenyl)-N-(cyclopropylmethyl)quinazolin-4-amine]
EC50 [1]: > 1 µM
Selectivity, CB2 vs. CB1 [2]: − (− indicates ≦ 10−fold)

SMILES: Clc1ccccc1-c1nc(N2CCc3ccccc3C2)c2ccccc2n1 [Example 61, 2-(2-Chlorophenyl)-4-(3,4-dihydroisoquinolin-2(1H)-yl)quinazoline]
EC50 [1]: < 1 µM
Selectivity, CB2 vs. CB1 [2]: − (− indicates ≦ 10−fold)

SMILES: CN(c1nc(-c2ccccc2Cl)nc2ccccc12)C1CCCCC1 [Example 63, 2-(2-Chlorophenyl)-N-cyclohexyl-N-methylquinazolin-4-amine]
EC50 [1]: < 1 µM
Selectivity, CB2 vs. CB1 [2]: − (− indicates ≦ 10−fold)

SMILES: CCCCN(C)c1nc(-c2ccccc2Cl)nc2ccccc12 [Example 64, N-Butyl-2-(2-chlorophenyl)-N-methylquinazolin-4-amine]
EC50 [1]: < 1 µM
Selectivity, CB2 vs. CB1 [2]: − (− indicates ≦ 10−fold)

Source: patent US20090209536A1, “AMINOQUINAZOLINE CANNABINOID RECEPTOR MODULATORS FOR TREATMENT OF DISEASE” (KALYPSYS, INC., priority 2007, published 2009)
